For experiment [1], the target named is T1, human VPAC2 (Homo sapiens, UniProt P41587).
T1 construct: expressed in transfected cells
T1 sequence (P41587 24-438): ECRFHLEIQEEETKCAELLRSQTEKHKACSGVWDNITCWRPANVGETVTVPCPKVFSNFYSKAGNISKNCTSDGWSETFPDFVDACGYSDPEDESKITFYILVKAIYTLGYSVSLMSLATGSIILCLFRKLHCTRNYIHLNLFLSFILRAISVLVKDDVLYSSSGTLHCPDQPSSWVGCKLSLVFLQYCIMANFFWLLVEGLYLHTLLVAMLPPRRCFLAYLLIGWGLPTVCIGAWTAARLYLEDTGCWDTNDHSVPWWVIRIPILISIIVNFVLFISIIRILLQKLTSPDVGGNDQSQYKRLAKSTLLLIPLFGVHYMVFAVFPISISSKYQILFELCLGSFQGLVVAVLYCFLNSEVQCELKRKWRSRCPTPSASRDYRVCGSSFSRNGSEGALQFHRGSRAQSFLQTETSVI
Description: DiscoveRx cAMP in vitro potency, human VPAC2. Type of experiment: cell-based. As to the method:
Also, the cells are washed twice. The cells are incubated in assay buffer plus IBMX for 15 minutes at room temperature. […] The stimuli are present for 30 minutes. Then, the assay buffer is gently removed. […] At day 3, the assay described above for the VPAC2 receptor cell line is performed.

The target of experiment [2] is T1, human VPAC2. Description: Alpha screen cAMP in vitro potency, human VPAC2. Type of experiment: cell-based. As to the method:
Alpha screen: Cells are washed in the culture flask once with PBS. Then, the cells are rinsed with enzyme free dissociation buffer. The dissociated cells are removed. The cells are then spun down and washed in stimulation buffer. For each data point, 50,000 cells suspended in stimulation buffer are used. To this buffer, Alpha screen acceptor beads are added along with the stimuli. This mixture is incubated for 60 minutes. Lysis buffer and Alpha screen donor beads are added and are incubated for 60 to 120 minutes. The Alpha screen signal (indicative of intracellular cAMP levels) is read in a suitable instrument (e.g. AlphaQuest from Perlin-Elmer). Steps including Alpha screen donor and acceptor beads are performed in reduced light.

Experiment [3] has as its target T1, human VPAC2. Put plainly: Filter binding assay, human VPAC2 membranes, 125I-labeled VIP tracer. As to the method:
(§1) For this assay, the solutions and equipment include:
(§2) Presoak solution: 0.5% Polyethyleneamine in Aqua dest.
(§3) Buffer for flushing filter plates: 25 mM […] pH 7.4
(§4) Blocking buffer: 25 mM HEPES pH 7.4; 0.2% protease free BSA
(§5) Assay buffer: 25 mM HEPES pH 7.4; 0.5% protease free BSA
(§6) Dilution and assay plate: PS-Microplate, U form
(§7) Filtration Plate Multiscreen FB Opaque Plate; […] Type B Glasfiber filter
(§8) In order to prepare the filter plates, aspirate the presoak solution by vacuum filtration. Flush the plates twice with 200 μL flush buffer. Add 200 μL blocking buffer to the filter plate. The filter plate is then incubated […] for 1 hour at room temperature.
(§9) Fill the assay plate with 25 μL assay buffer, 25 μL membranes (2.5 μg) suspended in assay buffer, 25 μL compound (agonist) in assay buffer, and 25 μL tracer (about 40000 cpm) in assay buffer. Incubate the filled plate for 1 hour with shaking.
(§10) Conduct the transfer from assay plate to filter plate. Aspirate the blocking buffer by vacuum filtration and wash two times with flush buffer. Transfer 90 μL from the assay plate to the filter plate. Aspirate the 90 μL transferred from assay plate and wash three times with 200 μL flush buffer. Remove the plastic support. Dry for 1 hour at 60° C. Add 30 μL Microscint. Perform the count.

The target in a further experiment is T2, human VPAC1 (Homo sapiens, UniProt P32241).
T2 sequence (P32241 31-457): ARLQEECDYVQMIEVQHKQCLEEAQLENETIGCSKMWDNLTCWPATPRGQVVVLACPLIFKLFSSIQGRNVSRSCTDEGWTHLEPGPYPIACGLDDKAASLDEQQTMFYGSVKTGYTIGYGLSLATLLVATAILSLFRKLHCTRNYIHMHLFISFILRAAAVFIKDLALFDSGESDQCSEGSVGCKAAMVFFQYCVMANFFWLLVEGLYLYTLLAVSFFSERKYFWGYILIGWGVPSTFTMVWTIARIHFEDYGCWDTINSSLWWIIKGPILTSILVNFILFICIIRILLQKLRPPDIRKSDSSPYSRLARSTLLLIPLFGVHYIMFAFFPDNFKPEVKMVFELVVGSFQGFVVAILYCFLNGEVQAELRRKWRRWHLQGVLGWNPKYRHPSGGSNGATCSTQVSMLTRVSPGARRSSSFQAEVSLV
Description: Filter binding assay, human VPAC1 membranes, 125I-labeled VIP tracer. Also noted: expressed in transfected cells. As for the experimental part: as §1, §2, §3, §4, §5, §6, §7, §8, §9, §10

*1 amine or outer side, *2 acyl side, *3 side chain or, on linkers, in order; H or OH if unused. Where a SMILES comes first, the peptide text is derived from it. Side-chain parts run from the residue outwards. The star is where a group is joined. γGlu = O=C(O)[C@H](CCC(=O)[*:2])N[*:1]; Hydrocinnamoyl = O=C(CCc1ccccc1)*; Palmitoyl = CCCCCCCCCCCCCCCC(=O)*; Propionyl = CCC(=O)*; Bz = O=C(c1ccccc1)*

For `CCCCCCCCCCCCCCCC(=O)N[C@@H](CCC(=O)NCCCC[C@H](NC(=O)[C@@H]1CCCN1C(=O)[C@@H]1CCCN1C(=O)[C@@H]1CCCN1C(=O)[C@H](CO)NC(=O)[C@@H](NC(=O)[C@H](CCCNC(=N)N)NC(=O)[C@H](CO)NC(=O)[C@H](CC(N)=O)NC(=O)[C@H](CCCCN)NC(=O)[C@@H](NC(=O)[C@H](CO)NC(=O)[C@H](CCC(N)=O)NC(=O)[C@H](CC(C)C)NC(=O)[C@H](Cc1ccc(O)cc1)NC(=O)[C@H](CCCCN)NC(=O)[C@H](CCCCN)NC(=O)[C@H](C)NC(=O)[C@H](C)NC(=O)[C@@H](NC(=O)[C@H](CCC(N)=O)NC(=O)[C@H](CCCCN)NC(=O)[C@H](CCCNC(=N)N)NC(=O)[C@H](CC(C)C)NC(=O)[C@H](CCCNC(=N)N)NC(=O)[C@@H](NC(=O)[C@H](Cc1ccc(O)cc1)NC(=O)[C@H](CC(N)=O)NC(=O)[C@H](CC(=O)O)NC(=O)[C@@H](NC(=O)[C@H](Cc1ccccc1)NC(=O)[C@@H](NC(=O)[C@H](C)NC(=O)[C@H](CC(=O)O)NC(=O)[C@H](CO)NC(=O)[C@@H](N)Cc1c[nH]cn1)C(C)C)[C@@H](C)O)[C@@H](C)O)C(C)C)[C@@H](C)CC)[C@@H](C)O)C(N)=O)C(=O)O` [Agonist P80] (H-HSDAVFTDNYTRLRKQVAAKKYLQSIKNSRTSPPPK([γGlu-Palmitoyl])-NH2), the results for the EC50 at human VPAC2 [1] and on human VPAC2 [2] were 2.8 nM and 1.82 nM, respectively. The IC50 stood at 31.6 nM on human VPAC2 [3] and 284 nM at human VPAC1.
With `CC[C@H](C)[C@H](NC(=O)[C@H](CO)NC(=O)[C@H](CCC(N)=O)NC(=O)[C@H](CC(C)C)NC(=O)[C@H](Cc1ccc(O)cc1)NC(=O)[C@H](CCCCN)NC(=O)[C@H](CCCCN)NC(=O)[C@H](C)NC(=O)[C@H](C)NC(=O)[C@@H](NC(=O)[C@H](CCC(N)=O)NC(=O)[C@H](CCCCN)NC(=O)[C@H](CCCNC(=N)N)NC(=O)[C@H](CC(C)C)NC(=O)[C@H](CCCNC(=N)N)NC(=O)[C@@H](NC(=O)[C@H](Cc1ccc(O)cc1)NC(=O)[C@H](CC(N)=O)NC(=O)[C@H](CC(=O)O)NC(=O)[C@@H](NC(=O)[C@H](Cc1ccccc1)NC(=O)[C@@H](NC(=O)[C@H](C)NC(=O)[C@H](CC(=O)O)NC(=O)[C@H](CO)NC(=O)[C@H](Cc1c[nH]cn1)NC(=O)CCc1ccccc1)C(C)C)[C@@H](C)O)[C@@H](C)O)C(C)C)C(=O)N[C@@H](CCCCN)C(=O)N[C@@H](CC(N)=O)C(=O)N[C@@H](CO)C(=O)N[C@@H](CCCNC(=N)N)C(=O)N[C@H](C(=O)N[C@@H](CO)C(=O)N1CCC[C@H]1C(=O)N1CCC[C@H]1C(=O)N1CCC[C@H]1C(N)=O)[C@@H](C)O` [Agonist P90] (Hydrocinnamoyl-HSDAVFTDNYTRLRKQVAAKKYLQSIKNSRTSPPP-NH2), the EC50 is 1.7 nM on human VPAC2 [1] and 4.01 nM at human VPAC2 [2]. The IC50 turned out to be 0.82 nM on human VPAC2 [3] and 65 nM on human VPAC1.
The like results for `CC[C@H](C)[C@H](NC(=O)[C@H](CO)NC(=O)[C@H](CCC(N)=O)NC(=O)[C@H](CC(C)C)NC(=O)[C@H](Cc1ccc(O)cc1)NC(=O)[C@H](CCCCN)NC(=O)[C@H](CCCCN)NC(=O)[C@H](C)NC(=O)[C@H](C)NC(=O)[C@@H](NC(=O)[C@H](CCC(N)=O)NC(=O)[C@H](CCCCN)NC(=O)[C@H](CCCNC(=N)N)NC(=O)[C@H](CC(C)C)NC(=O)[C@H](CCCNC(=N)N)NC(=O)[C@@H](NC(=O)[C@H](Cc1ccc(O)cc1)NC(=O)[C@H](CC(N)=O)NC(=O)[C@H](CC(=O)O)NC(=O)[C@@H](NC(=O)[C@H](Cc1ccccc1)NC(=O)[C@@H](NC(=O)[C@H](C)NC(=O)[C@H](CC(=O)O)NC(=O)[C@H](CO)NC(=O)[C@H](Cc1c[nH]cn1)NC(=O)c1ccccc1)C(C)C)[C@@H](C)O)[C@@H](C)O)C(C)C)C(=O)N[C@@H](CCCCN)C(=O)N[C@@H](CC(N)=O)C(=O)N[C@@H](CO)C(=O)N[C@@H](CCCNC(=N)N)C(=O)N[C@H](C(=O)N[C@@H](CO)C(=O)N1CCC[C@H]1C(=O)N1CCC[C@H]1C(=O)N1CCC[C@H]1C(N)=O)[C@@H](C)O` [Agonist P91] (Bz-HSDAVFTDNYTRLRKQVAAKKYLQSIKNSRTSPPP-NH2) were, in that order, 0.76 nM, 1.9 nM, 0.21 nM and 58.2 nM.
On to `CCCCCCCCCCCCCCCC(=O)N[C@@H](CCC(=O)NCCCC[C@H](NC(=O)[C@@H]1CCCN1C(=O)[C@@H]1CCCN1C(=O)[C@@H]1CCCN1C(=O)[C@H](CO)NC(=O)[C@@H](NC(=O)[C@H](CCCNC(=N)N)NC(=O)[C@H](CO)NC(=O)[C@H](CC(N)=O)NC(=O)[C@H](CCCCN)NC(=O)[C@@H](NC(=O)[C@H](CO)NC(=O)[C@H](CCC(N)=O)NC(=O)[C@H](CC(C)C)NC(=O)[C@H](Cc1ccc(O)cc1)NC(=O)[C@H](CCCCN)NC(=O)[C@H](CCCCN)NC(=O)[C@H](C)NC(=O)[C@H](C)NC(=O)[C@@H](NC(=O)[C@H](CCC(N)=O)NC(=O)[C@H](CCCCN)NC(=O)[C@H](CCCNC(=N)N)NC(=O)[C@H](CC(C)C)NC(=O)[C@H](CCCNC(=N)N)NC(=O)[C@@H](NC(=O)[C@H](Cc1ccc(O)cc1)NC(=O)[C@H](CC(N)=O)NC(=O)[C@H](CC(=O)O)NC(=O)[C@@H](NC(=O)[C@H](Cc1ccccc1)NC(=O)[C@@H](NC(=O)[C@H](C)NC(=O)[C@H](CC(=O)O)NC(=O)[C@H](CO)NC(=O)[C@H](Cc1c[nH]cn1)NC(=O)CC)C(C)C)[C@@H](C)O)[C@@H](C)O)C(C)C)[C@@H](C)CC)[C@@H](C)O)C(N)=O)C(=O)O` [Agonist P95] (Propionyl-HSDAVFTDNYTRLRKQVAAKKYLQSIKNSRTSPPPK([γGlu-Palmitoyl])-NH2), for which the values for the EC50 at human VPAC2 [1] and on human VPAC2 [2] were 0.45 nM and 0.24 nM, respectively. For the same molecule, the half-inhibitory concentration (IC50) at human VPAC2 [3] was found to be 21.6 nM; on human VPAC1 it was 203 nM.

Broadly, the EC50 is the concentration that produces a half-maximal response. For orientation: IC50 means the concentration needed to halve the response being measured. A higher IC50 goes with weaker potency in that assay.
